Experimental findings from ChEMBL document CHEMBL3576821, “A potent antimicrobial compound isolated from Clathria cervicornis” (2015) are described below.

Format in all cases: functional
One assay has as its system Klebsiella pneumoniae. The assay is described as follows: Antimicrobial activity against Klebsiella pneumoniae ATCC 13883 assessed as bacterial growth inhibition after 24 hrs by standard broth microdilution method. The following applies: ATCC 13883, 24 h. Background: Dilution methods test growth across graded concentrations, often in twofold steps.
The test system of a further assay is Acinetobacter baumannii. In words: Antimicrobial activity against Acinetobacter baumannii ATCC 19606 assessed as bacterial growth inhibition after 24 hrs by standard broth microdilution method. As to conditions: ATCC 19606, 24 h.
The subject of the next assay is Pseudomonas aeruginosa. The assay is described as follows: Antimicrobial activity against Pseudomonas aeruginosa ATCC 10145 assessed as bacterial growth inhibition after 24 hrs by standard broth microdilution method. The following applies: ATCC 10145, 24 h.

In brackets after ≈: the same amount, converted by molar mass.

The MIC is the lowest concentration found to suppress growth.

With `CC[C@H]1CCCC[C@@]2(C[C@@H]3CC[C@@H]4[C@H](C(=O)OCCCCCCCCCCCCCCCC(=O)N(CCCN)C[C@@H](O)CCN)[C@]5(CCC[C@@H](C)O5)N=C(N2)N34)O1` [CRAMBESCIDIN 800], the values for the MIC in the assay on Klebsiella pneumoniae, in the assay on Acinetobacter baumannii and in the assay with Pseudomonas aeruginosa were 1 µg/mL (≈ 1.25 µM), 2 µg/mL (≈ 2.49 µM) and 1 µg/mL (≈ 1.25 µM), respectively.

For `CN(C)[C@@H]1C(O)=C(C(N)=O)C(=O)[C@@]2(O)C(O)=C3C(=O)c4c(O)cccc4[C@@](C)(O)[C@H]3C[C@@H]12` [TETRACYCLINE], the MIC was 1 µg/mL (≈ 2.25 µM) in the assay on Klebsiella pneumoniae, 2 µg/mL (≈ 4.5 µM) with Acinetobacter baumannii and 1 µg/mL (≈ 2.25 µM) in the assay on Pseudomonas aeruginosa.

Regarding `O=C(O)c1cn(C2CC2)c2cc(N3CCNCC3)c(F)cc2c1=O` [CIPROFLOXACIN], the MIC in the assay with Klebsiella pneumoniae amounted to 1 µg/mL (≈ 3.02 µM); in the assay on Acinetobacter baumannii it was 2 µg/mL (≈ 6.04 µM); in the assay with Pseudomonas aeruginosa, 1 µg/mL (≈ 3.02 µM).

Turning to `C[C@H]1COc2c(N3CCN(C)CC3)c(F)cc3c(=O)c(C(=O)O)cn1c23.C[C@H]1COc2c(N3CCN(C)CC3)c(F)cc3c(=O)c(C(=O)O)cn1c23.O` [LEVOFLOXACIN], the MIC in the assay with Acinetobacter baumannii amounted to 1 µg/mL.
